Calls of active or inactive are those of the source. The calls are words filed in the database; no cut-off is given here.

The target in one assay is CDK12/Cyclin K (Homo sapiens, UniProt Q9NYV4). Briefly: Inhibition of human CDK12 (696 to 1082 residues) /cyclinK (1 to 300 residues) using ac-YSPTSPpSYSPTSFpS-YSPTSPpSY-[PEG2]-RR-amid peptide as substrate in presence of ATP measured after 2 hrs by ADP-Glo kinase assay. The assay is classed as protein-complex assay.
For assay [1], the target named is T1, Protein cereblon/Cyclin-K/Cyclin-dependent kinase 12 (Homo sapiens, UniProt O75909+Q9NYV4+Q96SW2). Briefly: Protac activity at human CRBN/CDK12/CycK in human Bel-7402 cells assessed as RNAP2 CTD Ser2 phosphorylation level at 0.1 to 30 uM measured after 24 hrs by Western blotting assay. Type of assay: cell-based. The note with it: dose 0.1-30 µM.
T1 sequence (O75909 whole entry, looked up): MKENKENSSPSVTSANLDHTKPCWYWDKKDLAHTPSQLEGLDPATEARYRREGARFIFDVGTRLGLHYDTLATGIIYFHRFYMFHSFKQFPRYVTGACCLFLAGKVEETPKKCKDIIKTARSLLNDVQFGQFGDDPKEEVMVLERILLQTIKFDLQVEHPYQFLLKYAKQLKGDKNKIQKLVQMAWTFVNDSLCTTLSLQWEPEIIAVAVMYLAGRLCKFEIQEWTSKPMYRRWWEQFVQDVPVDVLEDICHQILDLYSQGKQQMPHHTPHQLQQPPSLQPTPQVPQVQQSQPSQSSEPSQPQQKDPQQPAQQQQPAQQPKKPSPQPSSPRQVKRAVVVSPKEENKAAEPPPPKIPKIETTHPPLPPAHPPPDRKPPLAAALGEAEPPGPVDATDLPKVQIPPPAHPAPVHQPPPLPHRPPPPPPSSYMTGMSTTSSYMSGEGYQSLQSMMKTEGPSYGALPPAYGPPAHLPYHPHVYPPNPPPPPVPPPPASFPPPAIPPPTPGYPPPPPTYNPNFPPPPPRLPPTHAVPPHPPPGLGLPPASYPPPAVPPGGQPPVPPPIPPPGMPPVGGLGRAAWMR
T1 sequence (Q96SW2 whole entry, looked up): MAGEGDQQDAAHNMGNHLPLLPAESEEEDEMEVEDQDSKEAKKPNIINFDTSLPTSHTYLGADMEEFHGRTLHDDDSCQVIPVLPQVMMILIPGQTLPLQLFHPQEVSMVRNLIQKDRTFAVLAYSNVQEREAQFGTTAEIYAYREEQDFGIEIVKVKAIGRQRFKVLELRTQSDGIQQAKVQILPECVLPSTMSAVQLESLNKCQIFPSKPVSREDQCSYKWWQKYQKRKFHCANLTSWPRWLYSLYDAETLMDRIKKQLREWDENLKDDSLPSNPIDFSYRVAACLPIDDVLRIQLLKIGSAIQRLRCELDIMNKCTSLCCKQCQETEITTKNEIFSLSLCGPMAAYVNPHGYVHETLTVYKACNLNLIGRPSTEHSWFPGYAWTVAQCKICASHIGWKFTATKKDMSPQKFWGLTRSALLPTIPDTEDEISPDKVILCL
T1 sequence (Q9NYV4 whole entry, looked up): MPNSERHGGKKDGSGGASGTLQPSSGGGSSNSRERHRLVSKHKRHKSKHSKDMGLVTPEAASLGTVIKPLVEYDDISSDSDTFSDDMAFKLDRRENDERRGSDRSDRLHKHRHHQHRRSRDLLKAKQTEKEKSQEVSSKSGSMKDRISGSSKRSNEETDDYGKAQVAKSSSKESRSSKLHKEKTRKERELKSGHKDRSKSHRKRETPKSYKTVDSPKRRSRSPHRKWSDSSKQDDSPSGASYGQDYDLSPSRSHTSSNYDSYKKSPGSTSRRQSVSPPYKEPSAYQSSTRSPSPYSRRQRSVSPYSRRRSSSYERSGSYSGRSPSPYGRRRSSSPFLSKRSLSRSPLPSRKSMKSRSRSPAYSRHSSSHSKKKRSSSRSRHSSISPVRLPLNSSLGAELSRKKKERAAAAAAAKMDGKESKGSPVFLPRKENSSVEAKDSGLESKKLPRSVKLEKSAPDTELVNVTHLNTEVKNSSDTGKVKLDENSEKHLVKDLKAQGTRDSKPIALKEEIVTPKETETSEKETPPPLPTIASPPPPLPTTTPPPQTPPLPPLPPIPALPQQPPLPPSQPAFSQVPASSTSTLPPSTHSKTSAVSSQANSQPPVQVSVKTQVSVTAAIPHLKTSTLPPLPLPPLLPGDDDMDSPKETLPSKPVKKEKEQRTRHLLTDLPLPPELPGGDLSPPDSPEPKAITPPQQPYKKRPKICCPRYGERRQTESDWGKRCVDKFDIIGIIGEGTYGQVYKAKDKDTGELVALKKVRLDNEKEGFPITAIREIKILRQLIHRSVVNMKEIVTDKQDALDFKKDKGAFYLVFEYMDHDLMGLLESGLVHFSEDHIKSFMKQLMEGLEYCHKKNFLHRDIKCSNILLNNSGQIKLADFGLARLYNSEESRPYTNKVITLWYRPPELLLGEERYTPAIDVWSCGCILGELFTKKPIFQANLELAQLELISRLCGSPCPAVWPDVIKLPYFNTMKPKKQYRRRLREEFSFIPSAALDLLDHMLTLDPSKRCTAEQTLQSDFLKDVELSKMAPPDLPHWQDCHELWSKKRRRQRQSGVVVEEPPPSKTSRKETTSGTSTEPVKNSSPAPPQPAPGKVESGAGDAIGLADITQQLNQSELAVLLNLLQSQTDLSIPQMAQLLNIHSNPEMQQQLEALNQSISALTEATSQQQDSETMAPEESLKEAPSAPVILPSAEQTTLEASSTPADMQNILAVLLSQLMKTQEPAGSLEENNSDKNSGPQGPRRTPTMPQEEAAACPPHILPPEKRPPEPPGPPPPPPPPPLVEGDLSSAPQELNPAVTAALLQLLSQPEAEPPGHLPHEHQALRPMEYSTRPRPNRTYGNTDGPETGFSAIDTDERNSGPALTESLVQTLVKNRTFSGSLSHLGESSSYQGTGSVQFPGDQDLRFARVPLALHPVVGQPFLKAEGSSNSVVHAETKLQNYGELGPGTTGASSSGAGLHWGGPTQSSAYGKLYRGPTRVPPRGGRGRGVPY
The target of assay [2] is T1, Protein cereblon/Cyclin-K/Cyclin-dependent kinase 12. Briefly: Protac activity at human CRBN/CDK12/CycK in human MDA-MB-231 cells assessed as RNAP2 CTD Ser2 phosphorylation level at 0.1 to 30 uM measured after 24 hrs by Western blotting assay. Particulars: dose 0.1-30 µM. Type of assay: cell-based. In general terms: Immunoblotting shows a protein as a band on a membrane.

Assay [3] shares this target. Briefly: Protac activity at human CRBN/CDK12/CycK in human Bel-7402 cells assessed as downregulation of Mcl-1 level upto 30 uM measured after 24 hrs by Western blotting assay. The assay is classed as cell-based. Particulars: dose microM <=30, time 24.0 hrs.
Assay [4] has the same target. Briefly: Protac activity at human CRBN/CDK12/CycK in human MDA-MB-231 cells assessed as downregulation of Mcl-1 level upto 30 uM measured after 24 hrs by Western blotting assay. Particulars: dose microM <=30, time 24.0 hrs. The assay is classed as cell-based.
Assay [5] has the same target. Briefly: Protac activity at human CRBN/CDK12/CycK in human Bel-7402 (CRBN/KO) cells assessed as degradation of CDK12 measured after 24 hrs by Western blotting assay. Type of assay: cell-based.
The target is the same in assay [6]. Briefly: Protac activity at human CRBN/CDK12/CycK in human MDA-MB-231(CRBN/KO) cells assessed as degradation of CDK12 measured after 24 hrs by Western blotting assay. Type of assay: cell-based.
In assay [7] the target is T2, CDK12/Cyclin K (Homo sapiens) (UniProt O75909+Q9NYV4). Briefly: Protac activity at human CDK12/CycK in human Bel-7402 (CRBN/WT) cells assessed as degradation of CDK12 measured after 24 hrs by Western blotting assay. The assay is classed as cell-based.
T2 sequence (O75909 whole entry, looked up): as the sequence (O75909 whole entry, looked up) above
T2 sequence (Q9NYV4 whole entry, looked up): as the sequence (Q9NYV4 whole entry, looked up) above
The target in assay [8] is T2, CDK12/Cyclin K (Homo sapiens). Briefly: Protac activity at human CDK12/CycK in human MDA-MB-231 (CRBN/WT) cells assessed as degradation of CDK12 measured after 24 hrs by Western blotting assay. The assay is classed as cell-based.
Assay [9] concerns MDA-MB-231. Briefly: Antiproliferative activity against human MDA-MB-231 cells at 1 uM for 10 days by SRB staining based clone formation assay relative to control. Type of assay: functional. Particulars: MDA-MB-231, 240 h, time 10 day. A general note: Sulforhodamine B stains cellular protein and so reports cell mass.
Assay [10] deals with MDA-MB-231. Briefly: Antiproliferative activity against human MDA-MB-231 cells at 3 uM for 10 days by SRB staining based clone formation assay relative to control. Type of assay: functional. Particulars: MDA-MB-231, 240 h, time 10 day.
Assay [11] concerns the target T1, Protein cereblon/Cyclin-K/Cyclin-dependent kinase 12. Briefly: Protac activity at human CRBN/CDK12/CycK in human Bel-7402 cells assessed as degradation of CDK12 at 3 uM measured after 24 hrs by Western blotting assay. The assay is classed as cell-based.
Assay [12] has the same target. Briefly: Protac activity at human CRBN/CDK12/CycK in human MDA-MB-231 cells assessed as degradation of CDK12 at 3 uM measured after 24 hrs by Western blotting assay. The assay is classed as cell-based.
Assay [13] concerns the target Cyclin-dependent kinase 13 (Homo sapiens) (UniProt Q14004). Briefly: Inhibition of human N-terminal FLAG-tagged CDK13 (600 to 1100 residues) using GST-tagged CTD as substrate at 3 uM for 2 hrs by western blot analysis.

Chain of CDK12/Cyclin K (O75909 whole entry, the tested form may be a part): as the sequence (O75909 whole entry, looked up) above
Chain of CDK12/Cyclin K (Q9NYV4 whole entry, the tested form may be a part): as the sequence (Q9NYV4 whole entry, looked up) above
Chain of Cyclin-dependent kinase 13 (Homo sapiens) (Q14004 whole entry, looked up, the tested form may be a part): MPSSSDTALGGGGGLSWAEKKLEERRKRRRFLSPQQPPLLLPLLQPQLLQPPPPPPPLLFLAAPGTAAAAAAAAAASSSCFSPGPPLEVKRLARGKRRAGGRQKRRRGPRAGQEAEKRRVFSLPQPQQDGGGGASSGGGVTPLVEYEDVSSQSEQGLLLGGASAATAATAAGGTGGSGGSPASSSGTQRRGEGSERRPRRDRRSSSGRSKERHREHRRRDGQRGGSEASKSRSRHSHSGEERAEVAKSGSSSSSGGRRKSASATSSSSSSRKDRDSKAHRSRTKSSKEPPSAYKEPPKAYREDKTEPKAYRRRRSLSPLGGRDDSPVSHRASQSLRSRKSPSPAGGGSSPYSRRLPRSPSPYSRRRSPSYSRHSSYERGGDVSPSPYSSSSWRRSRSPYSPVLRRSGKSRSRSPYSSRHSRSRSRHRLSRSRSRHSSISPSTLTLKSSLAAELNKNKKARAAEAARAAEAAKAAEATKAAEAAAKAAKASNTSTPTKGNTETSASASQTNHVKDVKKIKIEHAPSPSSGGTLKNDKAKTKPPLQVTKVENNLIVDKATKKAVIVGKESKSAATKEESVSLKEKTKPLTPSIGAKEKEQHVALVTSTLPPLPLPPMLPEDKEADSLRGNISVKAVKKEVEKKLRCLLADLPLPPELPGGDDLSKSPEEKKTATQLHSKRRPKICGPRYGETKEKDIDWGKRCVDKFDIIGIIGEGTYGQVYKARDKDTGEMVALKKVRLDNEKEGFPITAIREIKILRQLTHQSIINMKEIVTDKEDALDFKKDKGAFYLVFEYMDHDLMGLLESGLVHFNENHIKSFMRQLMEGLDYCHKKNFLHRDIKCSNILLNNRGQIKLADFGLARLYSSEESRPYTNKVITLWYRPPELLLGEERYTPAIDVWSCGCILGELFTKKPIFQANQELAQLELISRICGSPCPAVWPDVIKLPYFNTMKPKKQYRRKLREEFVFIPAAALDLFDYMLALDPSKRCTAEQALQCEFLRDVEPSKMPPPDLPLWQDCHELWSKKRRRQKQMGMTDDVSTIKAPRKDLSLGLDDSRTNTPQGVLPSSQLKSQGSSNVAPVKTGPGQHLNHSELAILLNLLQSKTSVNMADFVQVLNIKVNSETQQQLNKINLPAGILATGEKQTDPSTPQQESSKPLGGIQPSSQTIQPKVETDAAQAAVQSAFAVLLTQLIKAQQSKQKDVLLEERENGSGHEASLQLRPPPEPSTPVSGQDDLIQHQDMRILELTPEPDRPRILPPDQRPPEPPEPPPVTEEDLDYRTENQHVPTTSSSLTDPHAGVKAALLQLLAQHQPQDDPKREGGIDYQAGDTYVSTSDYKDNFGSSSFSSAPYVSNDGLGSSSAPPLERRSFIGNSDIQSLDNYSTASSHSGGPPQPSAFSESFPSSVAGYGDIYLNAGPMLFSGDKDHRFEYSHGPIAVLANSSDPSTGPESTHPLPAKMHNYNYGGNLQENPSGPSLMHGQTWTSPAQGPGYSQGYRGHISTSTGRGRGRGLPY

Usually IC50 stands for the point on the concentration scale where inhibition reaches its midpoint. `COCCOCCOc1cc2[nH]c(CNc3nc(N4CCOCC4)nc4c3ncn4-c3cnn(C)c3)nc2cc1F`: on CDK12/Cyclin K, the IC50 was determined as 411 nM.

On to `COCCOCCOc1cc2[nH]c(CNc3nc(N4CCOCC4)nc4c3ncn4C(C)C)nc2cc1F`, for which, on CDK12/Cyclin K, the IC50 came out at 237 nM.

Turning to `CN(C)C/C=C/C(=O)Nc1ccc(C(=O)N2CCC[C@@H](Nc3ncc(Cl)c(-c4c[nH]c5ccccc45)n3)C2)cc1`, the outcome in assay [1], in assay [2], in [3] and in [4] was Active.

Turning to `Cn1cc(-n2cnc3c(NCc4nc5cc(Cl)c(Cl)cc5[nH]4)nc(N4CCOCC4)nc32)cn1`, the outcome in [5], in [6], in assay [7] and in [8] was Active.

`COCCOCCOc1cc2[nH]c(CNc3nc(OCC[C@@H]4CCCCN4)nc4c3ncn4C(C)C)nc2cc1F`: the IC50 at CDK12/Cyclin K is 66.4 nM.

As usually defined, the inhibition is the share of the control response that was lost under treatment. As for `O=C(c1cc(Cc2n[nH]c(=O)c3ccccc23)ccc1F)N1CCN(C(=O)C2CC2)CC1` [OLAPARIB], in the assay with MDA-MB-231 [9], at 1 µM the inhibition was 12.4%. Also, testing at 3 µM in the assay with MDA-MB-231 [10] gave an inhibition of 98%.

For `CC(C)n1cnc2c(NCc3nc4cc(F)c(NCCCCCCCCCCCCNC(=O)COc5cccc6c5C(=O)N(C5CCC(=O)NC5=O)C6=O)cc4[nH]3)nc(N3CCOCC3)nc21` (configuration not stated), the outcome in assay [11] and in assay [12] was Active. In addition, the IC50 on CDK12/Cyclin K worked out at 2000 nM. In addition, the inhibition entry in [13] was “inactive”.

For the compound `CC(C)n1cnc2c(NCc3nc4cc(F)c(NCCCCCCCCCCNC(=O)COc5cccc6c5C(=O)N(C5CCC(=O)NC5=O)C6=O)cc4[nH]3)nc(N3CCOCC3)nc21` (configuration not stated), the result in assay [11] and in assay [12] was Active.

`CC(C)n1cnc2c(NCc3nc4cc(F)c(NCCCCCCNC(=O)COc5cccc6c5C(=O)N(C5CCC(=O)NC5=O)C6=O)cc4[nH]3)nc(N3CCOCC3)nc21` (configuration not stated): the outcome in assay [11] and in assay [12] was Active. The IC50 on CDK12/Cyclin K stood at 119 nM.

Source of the values: ChEMBL document CHEMBL5042492, “Noncovalent CDK12/13 dual inhibitors-based PROTACs degrade CDK12-Cyclin K complex and induce synthetic lethality with PARP inhibitor” (Eur J Med Chem, 2022).
